Reference: paper PMC9775191, “A Subset Screen of the Compounds Australia Scaffold Library Identifies 7-Acylaminodibenzoxazepinones as Potent and Selective Hits for Anti-Giardia Drug Discovery” (Biomedicines, 2022)

Test system: G. duodenalis BRIS/91/HEPU/1279
Experiment: Primary Giardia screen at 10 µM (live-cell imaging, automated counting)
Format: cell-based, Giardia duodenalis
Settings: for % Inhibition n=1 48h / % Inhibition n=1 24h: first singlicate assay; for % Inhibition n=2 24h / % Inhibition n=2 48h: re-assessment
How it was run: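 Compounds were tested once each at 10 μM final (0.2% DMSO) in culture medium under 3% O2, 5% CO2 in N2. Growth was read at 24 and 48 h by live-cell imaging with automated counting, and inhibition expressed as percent growth versus 0.2% DMSO vehicle after media-only background subtraction.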

Row | SMILES | % Inhibition n=1 48h [%] | also measured
1 | O=C(CCc1ccc(F)cc1)Nc1ccn(Cc2ccccn2)n1 [SN00775953] | 0.0 | 
2 | COCCNC(=O)N1Cc2c(C)nn(-c3ccccc3)c2-n2cccc2C1c1cccc(C)c1 (stereo not drawn) [SN00785355] | 10.0 | 
3 | CC(C)(C)NS(=O)(=O)c1ccc(N2CCC(c3nnc4n3CCC4)CC2)c([N+](=O)[O-])c1 [SN00772456] | 4.6 | 
4 | COc1cc(C(=O)NCC2(c3ccccc3)CCOCC2)cc(OC)c1OC [SN00783529] | 6.5 | 
5 | Cc1nc(CN2CCN(C(=O)c3c(C)c(C)n[nH]c3=O)CC2)cs1 [SN00780594] | 0.0 | 
6 | O=C(Cn1nnc(-c2cccs2)n1)c1ccc(Cl)s1 [SN00775834] | 2.4 | 
7 | COc1ccc2oc(-c3noc(C(NC(=O)c4ccco4)C(C)C)n3)c(C)c2c1 (stereo not drawn) [SN00796606] | 9.9 | 
8 | CCCNS(=O)(=O)c1cc(C(=O)N2CCCC2)cs1 [SN00789651] | 0.0 | 
9 | Cn1cnc2cc(-c3noc(C4CCCO4)n3)ccc21 (stereo not drawn) [SN00793699] | 22.8 | 
10 | Cc1ccc(N2CCCN(C(=O)CN(C)C3CC3)CC2)nn1 [SN00772050] | 11.9 | 
11 | Cc1ccc(CNC(=O)C2CCN(c3ncccc3-n3cccc3)CC2)cc1 [SN00790865] | 0.0 | 
12 | COc1ccc(-c2nc(S(=O)(=O)CC(=O)Nc3ccc(F)cc3)c(-c3ccc(OC)cc3)[nH]2)cc1 [SN00785276] | 12.5 | 
13 | COc1ccc(-n2c(CN3CCN(S(=O)(=O)c4cc(C)ccc4C)CC3)nc3cccnc32)cc1 [SN00796116] | 13.7 | 
14 | O=C(Cc1scnc1-c1cccs1)N1CCN(c2ccccn2)CC1 [SN00786601] | 0.0 | 
15 | CCCS(=O)(=O)N1CCc2c(c(-c3nnc(-c4ccc(F)cc4)o3)nn2C)C1 [SN00796867] | 0.0 | 
16 | O=C1C2C(c3ccc(F)cc3)NC(Cc3ccccc3)(C(=O)O)C2C(=O)N1c1ccc(F)cc1 (stereo not drawn) [SN00784528] | 0.7 | 
17 | Cn1nc(-c2nnc(-c3ccccc3Cl)o2)c2c1CCN(C(=O)c1ccc(F)c(F)c1)C2 [SN00796834] | 25.5 | Average % Inhibition 24h: 6.4%; % Inhibition n=1 24h: 12.9%; % Inhibition n=2 24h: 0.0%; Average % Inhibition 48h: 12.8%; % Inhibition n=2 48h: 0.0%
18 | COC(=O)CNC(=O)c1cn(-c2ccc(C(F)(F)F)cn2)nn1 [SN00771716] | 0.0 | 

Row | SMILES | % Inhibition n=1 48h [%] | also measured
19 | O=C(NCC1CC1)c1nnn(-c2ccccc2)c1-c1ccncc1 [SN00796358] | 0.0 | 
20 | CC(C)(C)c1nc(CN2CCCN(C(=O)CCCNC(=O)NC3CCCCC3)CC2)no1 [SN00780682] | 11.6 | 
21 | CN1C(=O)CC(C(=O)NNC(=O)COc2ccccc2-c2ccccc2)C1c1cccnc1 (stereo not drawn) [SN00780071] | 9.4 | 
22 | CC(=O)c1cccc(NC(=O)CN2CCC(c3nc(-c4ccccc4)no3)CC2)c1 [SN00799373] | 0.0 | 
23 | CN1CCN(CC2CCN(c3ccc([N+](=O)[O-])cc3Cl)CC2)CC1 [SN00781176] | 33.0 | 
24 | COCCS(=O)(=O)N1CCCC1Cn1ccnc1 (stereo not drawn) [SN00782604] | 0.0 | 
25 | Cc1csc(C2CCCCN2)n1 (stereo not drawn) [SN00781548] | 6.1 | 
26 | Cc1ccc([C@@H]2C[C@H](c3ccccc3)n3nnnc3N2)cc1 (relative stereo) [SN00783518] | 40.1 | Average % Inhibition 24h: 10.7%; % Inhibition n=1 24h: 21.3%; % Inhibition n=2 24h: 0.0%; Average % Inhibition 48h: 20.0%; % Inhibition n=2 48h: 0.0%
27 | COC(=O)c1cc(C(=O)Nc2c3c(nn2C)CCC3)cc([N+](=O)[O-])c1 [SN00777586] | 12.1 | 
28 | COc1ccc(-c2cc(N3CCN(C(=O)Cc4ccc(F)cc4)CC3)[nH]n2)cc1 [SN00800353] | 0.0 | 
29 | c1ccc(CCN2CCC(c3c[nH]c4ncccc34)CC2)nc1 [SN00780706] | 11.5 | 
30 | CSCCC1COC(c2cccn2C)=N1 (stereo not drawn) [SN00784837] | 0.0 | 
31 | CCn1c(=O)c(N2CCCC(C(=O)NCCc3c[nH]c4ccccc34)C2)nc2ccccc21 (stereo not drawn) [SN00790077] | 9.8 | 
32 | CCn1cc(CN(C)C(=O)c2cnn3c(C(F)F)cc(-c4ccc(OC)cc4)nc23)c(C)n1 [SN00783837] | 29.0 | 
33 | COc1c(C(=O)Nc2ccc(C)cc2)oc2ccc(NC(=O)c3ccc(C)s3)cc12 [SN00798811] | 19.9 | 
34 | Cc1ccc2oc(-c3noc(C(=O)NCC4CCCO4)n3)c(C)c2c1 (stereo not drawn) [SN00795207] | 0.0 | 
35 | CCCN(C)C(=O)Cn1c(=O)n(-c2ccc(F)cc2)c(=O)c2ccccc21 [SN00802614] | 32.9 | 
